The subject of the experiment is rabbit skeletal myofibrils (approximately 90% fast fibers). The experiment can be described thus: Activation of fast skeletal myofibrils (PUMA coupled-enzyme ATPase assay at pCa25). Conditions: concentration at which the compound increased the enzymatic activity by 40%; calcium at pCa25; PM12 buffer pH 6.8. Format: biochemical. How it is done: Preparation of fast skeletal myofibrils. Rabbit skeletal myofibrils were prepared based upon the method of Herrmann et al. (Biochem. 32(28):7255-7263(1993). Myofibrils were prepared from rabbit psoas muscle purchased from Pel-Freez Biologicals (Arkansas) within 2 days of ordering, stored on ice. Minced muscle was homogenized in 10 volumes of ice-cold “standard” buffer (50 mM Tris, pH 7.4, 0.1 M potassium acetate, 5 mM KCl, 2 mM DTT, 0.2 mM PMSF, 10 μM leupeptin, 5 μM pepstatin, and 0.5 mM sodium azide) containing 5 mM EDTA and 0.5% Triton X-100 using an Omni-Macro homogenizer. Myofibrils were recovered by low speed centrifugation (3000 rpm for 10 minutes) and washed 2 times in the Triton X-100 containing buffer to ensure removal of cellular membrane. Following the Triton washes, myofibrils were washed 3 times in “standard” buffer containing 2 mM magnesium acetate. A final wash in assay buffer (12 mM PIPES, pH 6.8, 60 mM KCl, 1 mM DTT) was performed and brought to 10% sucrose for flash freezing in liquid nitrogen and storage at −80° C.
Activation of Fast Skeletal Myofibrils. Fast fiber activators were identified by measuring the enzymatic activity of muscle myofibril preparations using the proprietary PUMA™ (see, e.g., U.S. Pat. Nos. 6,410,254, 6,743,599, 7,202,051, and 7,378,254) assay system. Myofibril preparations consisted of rabbit skeletal muscle (approximately 90% fast fibers) that had been mechanically homogenized and washed with a detergent (triton X-100) to remove cellular membranes. This preparation retained all of the sarcomeric components in a native conformation and the enzymatic activity was still regulated by calcium. Compounds were tested using a myofibril suspension and a level of calcium sufficient to increase enzymatic activity of the myofibrils to 25% of their maximal rate (termed pCa25). Enzymatic activity was tracked via a pyruvate kinase and lactate dehydrogenase-coupled enzyme system. This assay regenerates myosin-produced ADP into ATP by oxidizing NADH, producing an absorbance change at 340 nm. The buffering system was 12 mM Pipes, 2 mM MgCl2, 1 mM DTT at pH 6.8 (PM12 buffer).
Turning to `CC(C)(CNc1ncc(-c2ccc3[nH]nc(N)c3c2)cn1)c1ccc(F)cc1` [[5-(3-amino(1H-indazol-5-yl))pyrimidin-2-yl][2-(4-fluorophenyl)-2-methylpropyl]amine], the “Mean AC1.4” value is listed as “A (A=<1 uM)”.

Take `O=c1cc(O)ccn1-c1cnc(NC[C@]2(c3ncccc3F)C[C@H](F)C2)nc1` [1-[2-({[3-fluoro--1-(3-fluoro(2-pyridyl))cyclobutyl]methyl)amino)pyrimidin-5-yl]-4-hydroxyhydropyridin-2-one]: the “Mean AC1.4” value is given as “D (D=>20 uM)”. The result for `CC(C)(Nc1ncccn1)c1ncccc1Cl` [[1-(3-chloro(2-pyridyl))-isopropyl]pyrimidin-2-ylamine] reads “D (D=>20 uM)”.

On to `COc1nc(N(C)C[C@]2(c3ncccc3F)C[C@H](F)C2)ncc1-c1ccccc1` [{[3-fluoro-1-(3-fluoro(2-pyridyl))cyclobutyl]methyl}(4-methoxy-5-phenylpyrimidin-2-yl)methylamine], for which the “Mean AC1.4” value was “D (D=>20 uM)”.

Take `CC(C)(Nc1ncc(-c2cnnc(C(N)=O)c2)cn1)c1ncccc1Cl` [5-(2-{[1-(3-chloro(2-pyridyl))-isopropyl]amino)pyrimidin-5-yl)pyridazine-3-carboxamide]: the “Mean AC1.4” value is recorded as “B (B=1-10 uM)”. Turning to `COc1ccnc(C(C)(C)Nc2ncc(-c3ncc(C(N)=O)s3)cn2)n1` [2-(2-{[1-(4-methoxypyrimidin-2-yl)-isopropyl]amino}pyrimidin-5-yl)-1,3-thiazole-5-carboxamide], the “Mean AC1.4” value is “D (D=>20 uM)”.

As for `O=C(NC1CC(O)C1)c1cccc(-c2cnc(NC[C@]3(c4ncccc4F)C[C@H](F)C3)nc2)c1` (stereo partly drawn) [{3-[2-(([3-fluoro-1-(3-fluoro(2-pyridyl))cyclobutyl]methyl}amino)pyrimidin-5-yl]phenyl}-N-(3-hydroxycyclobutyl)carboxamide], the “Mean AC1.4” value is given as “B (B=1-10 uM)”. As for `Fc1ccc(C2(Nc3nccc(C(F)(F)F)n3)CCC2)cc1` [[(4-fluorophenyl)cyclobutyl][4-(trifluoromethyl)pyrimidin-2-yl]amine], the “Mean AC1.4” value is on record as “C (C=10-20 uM)”. With `CC(C)(Nc1ncc(-c2nc(CNC(=O)[C@@H]3CCCN3)cs2)cn1)c1ncccc1F` [((2S)pyrrolidin-2-yl)-N-{[2-(2-{[1-(3-fluoro(2-pyridyl))-isopropyl]amino}pyrimidin-5-yl)(1,3-thiazol-4-yl)]methyl}carboxamide], the “Mean AC1.4” value is “D (D=>20 uM)”. As for `Oc1ncccc1-c1cnc(NC[C@]2(c3ncccc3F)C[C@H](F)C2)nc1` [3-[2-({[3-fluoro-1-(3-fluoro(2-pyridyl))cyclobutyl]methyl}amino)pyrimidin-5-yl]pyridin-2-ol], the entry is “C (C=10-20 uM)”. Turning to `Cc1cnc(N)nc1-c1cnc(NC[C@]2(c3ncccc3F)C[C@H](F)C2)nc1` [[5-(2-amino-5-methylpyrimidin-4-yl)pyrimidin-2-yl]{[3-fluoro-1-(3-fluoro(2-pyridyl))cyclobutyl]methyl}amine], the “Mean AC1.4” value is “D (D=>20 uM)”. Consider `CN(C(=O)c1cnc(NCC2(c3ncccc3F)CCC2)nc1)c1nccs1` [[2-({[(3-fluoro(2-pyridyl))cyclobutyl)]methyl}amino) pyrimidin-5-yl]-N-methyl-N-(1,3-thiazol-2-yl)carboxamide], for which the “Mean AC1.4” value was “D (D=>20 uM)”. As for `Cc1nc(NC[C@]2(c3ncccc3F)C[C@H](F)C2)ncc1-c1ccc(C(N)=O)cc1` [4-[2-({[3-fluoro-1-(3-fluoro(2-pyridyl))cyclobutyl]methyl}amino)-4-methylpyrimidin-5-yl]benzamide], the entry is “D (D=>20 uM)”.

For the molecule `Oc1ncc(-c2cnc(NC[C@]3(c4ncccc4F)C[C@H](F)C3)nc2)cn1` [5-[2-({[3-fluoro-1-(3-fluoro(2-pyridyl))cyclobutyl]methyl}amino)pyrimidin-5-yl]pyrimidin-2-ol], the “Mean AC1.4” value is “D (D=>20 uM)”. Turning to `O=C(O)c1ccc(O)c(-c2cnc(NC[C@]3(c4ncccc4F)C[C@H](F)C3)nc2)c1` [3-[2-({[3-fluoro-1-(3-fluoro(2-pyridyl))cyclobutyl]methyl}amino)pyrimidin-5-yl]-4-hydroxybenzoic acid], the “Mean AC1.4” value is “A (A=<1 uM)”.

For the origin of these results see patent US11369565B2, “Amino-pyrimidine skeletal muscle modulators” (Cytokinetics, Inc., priority 2010, dated 2022).
